Assay [1] deals with HeLa cells. The assay is described as follows: Flow cytometric cell cycle distribution. The class given is cell-based. To be noted: 24 h. As to the method: To evaluate the effects of compounds 63, 66, and 75 on cell cycle progression, we first treated HeLa cells for 24 h.The cells were then labeled with propidium iodide (PI) and analyzed by flow cytometry. As shown in Figure 5 (panel B), compound 66 induced arrest of the cell cycle in the G2/M phase.
5 ×10^5 HeLa cells were treated with different concentrations of the test compounds for 24 h. After the incubation period, the cells were collected, centrifuged, and fixed with ice-cold ethanol (70%). The cells were treated with lysis buffer containing RNase A and 0.1% Triton X-100 and stained with PI. Samples were analyzed on a Cytomic FC500 flow cytometer (Beckman Coulter). DNA histograms were analyzed using MultiCycle for Windows (Phoenix Flow Systems).
For orientation: In flow cytometry, cells or beads pass a laser one at a time.

In assay [2] the test system is human peripheral blood lymphocytes stimulated with PHA. The assay is described as follows: Cytotoxicity in PHA-stimulated PBLs (MTT). The class given is cell-based. The following applies: Lymphocyte, 72 h, mean ± SEM, three experiments, read-out: GI50 PBLPHA. As to the method: (§1) PBLs were obtained from human peripheral blood (leucocyte rich plasma-buffy coats) from healthy volunteers using the Lymphoprep (Fresenius KABI Norge AS) gradient density centrifugation.
(§2) After extensive washing, cells were resuspended (1.0 × 10^6 cells/mL) in RPMI-1640 with 10% fetal bovine serum and incubated overnight. For cytotoxicity evaluations in proliferating PBL cultures, nonadherent cells were resuspended at 5 × 10^5 cells/mL in growth medium, containing 2.5 μg/mL PHA (Irvine Scientific). Different concentrations of the test compounds were added, and viability was determined 72 h later by the MTT test. For cytotoxicity evaluations in resting PBL cultures, nonadherent cells were resuspended (5 × 10^5 cells/mL) and treated for 72 h with the test compounds.

Assay [3] deals with human peripheral blood lymphocytes not stimulated with PHA. Briefly: Cytotoxicity in resting PBLs (MTT). The class given is cell-based. The following applies: Lymphocyte, 72 h, mean ± SEM, three experiments, read-out: GI50 PBLresting. As to the method:
as §1, §2

Another assay concerns UACC-257. The assay is described as follows: NCI-60 screen. The class given is cell-based. The following applies: Homo sapiens, Melanoma. Summed up:
(§3)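 Compounds were screened at a single concentration of 10^–5 M against the full NCI-60 panel of human cancer cell lines spanning nine tumour types, including leukemia, lung, colon, CNS, melanoma, ovarian, renal, prostate and breast.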

The subject of another assay is A549/ATCC. Briefly: NCI-60 screen. The class given is cell-based. To be noted: Homo sapiens, Non-Small-Cell Lung Cancer. Summed up:
as §3

Assay [4] relates to HeLa cells. The assay is described as follows: ROS production (H2-DCFDA). The class given is cell-based. To be noted: 48 h, 0.5 μM. The procedure:
One consequence of mitochondrial depolarization caused by the release of cytochrome c into the cytoplasm is the increase in reactive oxygen species (ROS).[65] Therefore, we wanted to evaluate whether ROS production increased following treatment with compound 66. To do this, we used the fluorescent probe 2,7-dichlorodihydrofluorescein diacetate (H2-DCFDA), which is oxidized to the fluorescent compound dichlorofluorescein (DCF) upon ROS production.
The production of ROS was measured by flow cytometry using H2DCFDA (Molecular Probes), as previously described.[59] Briefly, after different times of treatment, cells were collected by centrifugation and resuspended in PBS containing H2DCFDA at the concentration of 0.1 μM. The cells were then incubated for 30 min at 37 °C, centrifuged, and resuspended in PBS. The fluorescence was directly recorded with the flow cytometer, using as excitation wavelength 488 nm and emission at 530 nm.

In another assay the test system is phosphorylated cdc2. Briefly: Western blot, G2/M checkpoint proteins. The class given is cell-based. To be noted: HeLa, after both 24 and 48 h. As to the method: (§4) Figure 6 Effects of 66 on G2/M checkpoint proteins. HeLa cells were treated with 0.1 or 0.5 μM compound 66 for 24 or 48 h. The cells were harvested and lysed for the detection of cdc25c, p-cdc2^Y15, and cyclin B expression by Western blot analysis. To confirm equal protein loading, each membrane was stripped and reprobed with anti-GAPDH antibody. The relative expression of proteins was analyzed by scanning densitometry using ImageJ software and reported as a ratio protein/GAPDH.
(§5) HeLa cells were incubated in the presence of the test compound and, after different times, were collected, centrifuged, and washed two times with ice cold PBS. The pellet was resuspended in lysis buffer. After the cells were lysed on ice for 30 min, lysates were centrifuged at 15 000g at 4 °C for 10 min. The protein concentration in the supernatant was determined using the BCA protein assay reagents (Pierce, Italy). Equal amounts of protein (10 μg) were resolved using sodium dodecyl sulfate–polyacrylamide gel electrophoresis (Criterion Precast, BioRad, Italy) and transferred to a PVDF Hybond-P membrane (GE Healthcare). Membranes were blocked with a bovine serum albumin solution (5% in Tween PBS 1×), and the membranes were gently rotated overnight at 4 °C in the albumin solution. Membranes were then incubated with primary antibodies against PARP cleaved fragment, cdc25c, cyclin B, p-cdc2^Tyr15, XIAP, and Mcl-1 (all from Cell Signaling) or GAPDH (Sigma-Aldrich) for 2 h at room temperature. Membranes were next incubated with peroxidase labeled secondary antibodies for 1 h. All membranes were visualized using ECL Select (GE Healthcare), and images were acquired using an Uvitec-Alliance imaging system (Uvitec, Cambridge, U.K.). To ensure equal protein loading, each membrane was stripped and reprobed with anti-GAPDH antibody. To obtain relative quantitative data, ImageJ software (NIH, USA) was used for scanning densitometry analysis of Western blots.
In general terms: Immunoblotting shows a protein as a band on a membrane.

A further assay concerns cdc25c. The assay is described as follows: Western blot, G2/M checkpoint proteins. To be noted: HeLa, 0.5 μM. The class given is cell-based. The procedure:
as §4, §5

The test system of the next assay is cyclin B1. The assay is described as follows: Western blot, G2/M checkpoint proteins. The class given is cell-based. The following applies: HeLa, 24 h, 0.5 μM. As to the method:
as §4, §5

Assay [5] concerns HeLa cells. The assay is described as follows: Mitochondrial membrane potential (JC-1). The class given is cell-based. The following applies: 0.1 and 0.5 μM, 24 or 48 h. As to the method:
The mitochondrial membrane potential was measured with the lipophilic cationic dye 5,5′,6,6′ tetrachlo-1,1′,3,3′-tetraethylbenzimidazolcarbocyanine (JC-1) (Molecular Probes), as described.[73] The method is based on the ability of this fluorescent probe to enter selectively into mitochondria since it changes reversibly its color from green to red as membrane potential increases. This property is due to the reversible formation of JC-1 aggregates upon membrane polarization that causes a shift in the emitted light from 530 nm (i.e., emission of JC-1 monomeric form) to 590 nm (emission of JC-1-aggregate) when excited at 490 nm.

For a further assay, the target named is tubulin colchicine site (Bos taurus, UniProt P81947+Q6B856). Briefly: Inhibition of [3H]colchicine binding to tubulin. To be noted: read-out: inhibition of colchicine binding % inhibition ± SD.

Each structure is given as a SMILES string.

Sequence of tubulin colchicine site (Q6B856 whole entry): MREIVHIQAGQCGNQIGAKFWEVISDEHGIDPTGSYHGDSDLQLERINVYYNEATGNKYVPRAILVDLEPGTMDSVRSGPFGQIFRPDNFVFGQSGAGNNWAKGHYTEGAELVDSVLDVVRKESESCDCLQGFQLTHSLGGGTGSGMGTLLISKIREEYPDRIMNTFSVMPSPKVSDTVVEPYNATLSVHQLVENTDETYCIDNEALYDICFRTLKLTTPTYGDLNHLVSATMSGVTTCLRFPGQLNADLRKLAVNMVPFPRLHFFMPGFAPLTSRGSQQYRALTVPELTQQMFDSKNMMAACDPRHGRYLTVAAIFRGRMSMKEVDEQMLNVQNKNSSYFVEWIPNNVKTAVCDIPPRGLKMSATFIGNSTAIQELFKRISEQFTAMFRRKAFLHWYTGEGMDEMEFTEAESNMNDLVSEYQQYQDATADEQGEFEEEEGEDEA
Sequence of tubulin colchicine site (P81947 whole entry): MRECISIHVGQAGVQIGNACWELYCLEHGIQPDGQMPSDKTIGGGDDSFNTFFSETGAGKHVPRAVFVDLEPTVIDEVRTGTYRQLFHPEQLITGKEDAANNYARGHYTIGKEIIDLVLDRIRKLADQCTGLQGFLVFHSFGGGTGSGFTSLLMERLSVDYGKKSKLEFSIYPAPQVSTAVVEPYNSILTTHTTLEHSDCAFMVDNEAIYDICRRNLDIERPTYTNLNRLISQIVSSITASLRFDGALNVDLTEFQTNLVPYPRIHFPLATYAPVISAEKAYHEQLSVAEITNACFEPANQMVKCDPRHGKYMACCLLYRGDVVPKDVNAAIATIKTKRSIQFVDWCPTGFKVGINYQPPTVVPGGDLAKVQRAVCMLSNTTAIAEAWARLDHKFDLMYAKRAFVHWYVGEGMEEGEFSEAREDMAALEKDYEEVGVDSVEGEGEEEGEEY
Method for tubulin colchicine site: Reaction mixtures in the assembly assay contained 9 μM (0.9 mg/mL) tubulin in the assembly assay, and in the colchicine assay they contained 0.5 μM tubulin, 5.0 μM [^3H]colchicine, and 5.0 μM inhibitor.
Analysis of effects on tubulin polymerization was performed by turbidimetry at 350 nm in recording spectrophotometers equipped with electronic temperature controllers as described in detail elsewhere.[71] […] The binding of [^3H]colchicine to tubulin was perfomed as described in detail previously[72] except that the tubulin concentration was reduced from 0.1 mg/mL to 0.05 mg/mL and only one, instead of two, DEAE-cellulose filter was used for each reaction mixture.

What is called GI50 is the concentration that inhibits growth by half. As to `CCOC(=O)c1cc2c(n1Cc1cccc(OC)c1)-c1oncc1CCC2` [Compound 63, Ethyl 9-(3-Methoxybenzyl)-4,5,6,9-tetrahydropyrrolo[2′,3′:3,4]cyclohepta[1,2-d][1,2]oxazole-8-carboxylate], the “concentration at which G2/M arrest first occurred” value (“concentration” for short) with HeLa cells [1] amounted to 1 µM. The GI50 in assay [2] was above 100 µM; in [3], above 100 µM; in the assay on UACC-257, 7.61 µM; with A549/ATCC it was 0.76 µM.
The inhibition is how much of the control response was suppressed. As for `CCOC(=O)c1cc2c(n1Cc1cc(OC)cc(OC)c1)-c1oncc1CCC2` [Compound 66, Ethyl 9-(3,5-Dimethoxybenzyl)-4,5,6,9-tetrahydropyrrolo[2′,3′:3,4]cyclohepta[1,2-d][1,2]oxazole-8-carboxylate], in the assay with HeLa cells [1], the “concentration” value was 0.125 µM. Moreover, the “cells arrested in G2/M” value with HeLa cells [1] (0.5 μM) is on record as “over 80%”. For the same compound, the GI50 in [2] is above 100 µM; in assay [3], above 100 µM; with A549/ATCC it was 0.06 µM. For the same compound, the ROS production entry with HeLa cells [4] is listed as “induced the production of ROS”. For the same compound, the “expression of phosphorylated cdc2” value with phosphorylated cdc2 is on record as “strongly decreased”. In addition, in the assay with cdc25c, the “total cdc25c expression” value is “strongly reduced”. Further, in the assay with cyclin B1, the “cyclin B1 expression” value is on record as “substantial increase”. Moreover, the “percentage of cells with low Δψmt” value with HeLa cells [5] is “significant increase”. The inhibition at 5 µM on tubulin colchicine site worked out at 62 ± 2%.
Turning to `CCOC(=O)c1cc2c(n1Cc1cc(OC)c(OC)c(OC)c1)-c1oncc1CCC2` [Compound 67, Ethyl 9-(3,4,5-Trimethoxybenzyl)-4,5,6,9-tetrahydropyrrolo[2′,3′:3,4]cyclohepta[1,2-d][1,2]oxazole-8-carboxylate], the inhibition at 5 µM on tubulin colchicine site stood at 25 ± 0.01%.
Consider `CCOC(=O)c1c(Cl)c2c(n1Cc1cc(OC)cc(OC)c1)-c1oncc1CCC2` [Compound 75, Ethyl 7-Chloro-9-(3,5-dimethoxybenzyl)-4,5,6,9-tetrahydropyrrolo[2′,3′:3,4]cyclohepta[1,2-d][1,2]oxazole-8-carboxylate], for which, in the assay with HeLa cells [1], the “concentration” value turned out to be 0.25 µM. The concentration for 50% growth inhibition (GI50) in [2] and in assay [3] was above 100 µM in each case. In addition, the inhibition at 5 µM at tubulin colchicine site amounted to 42 ± 5%.

Source of the values: article PMC7901646, “Pyrrolo[2′,3′:3,4]cyclohepta[1,2-d][1,2]oxazoles, a New Class of Antimitotic Agents Active against Multiple Malignant Cell Types” (Journal of Medicinal Chemistry, 2020).
